# Laboratory results as given in PubChem BioAssay AID1963836 (Molecular Pharmacology Branch, DTP, NCI, 2024).
# Values joined by “and” are separate entries in the source; they are usually repeats but may differ in a detail not shown here. Equal entries are not always repeated.
# System: 857933-349-R-J2-PDC complex spheroid viability
# Assay: Anticancer human tumor 857933-349-R-J2-PDC patient-derived colon adenocarcinoma cell line growth inhibition [POLQ]
# Conditions: for viability, T/C: stronger effect = lower value
# Method: Multicellular complex tumor spheroid response to Polymerase (POL) inhibitors (novobiocin, ART-558, RP6685) in combination with a variety of drugs and investigational agents in selected tumor cell lines
# The POL inhibitors (novobiocin, ART-558, and RP6685) were evaluated both individually and in combination with standard of care and investigational anticancer small molecules within a complex spheroid model of solid tumors. . Complex spheroids include a stromal component modeled by human endothelial cells (HUVEC) and fibroblasts modeled by human mesenchymal stem cells (MSCs). The concentration ranges selected for each drug and investigational agent were based upon clinically achievable concentrations if the clinical Cmax of the agent was known.
# Compounds. The drugs and investigational agents: novobiocin (NSC847541), ART-558 (NSC835418), RP-6685 (NSC848927), peposertib (NSC802822), ceralasertib (NSC780249), elimusertib (NSC800525), camonsertib (NSC841442), AZD-1390 (NSC803789), olaparib (NSC753686), talazoparib (NSC767125), rucaparib (NSC756644), sotorasib (NSC818433), MRTX-1133 (NSC836407), SN-38 (NSC673596), topotecan (NSC609699), epotoside (NSC141540), doxorubicin (NSC123127), gemcitabine (NSC613327), 5-fluorouracil (NSC19893), paclitaxel (NSC125973), vemurafenib (NSC761431), MSA-2 (NSC828583), SN-011 (NSC837082), adavosertib (NSC754352), prexasertib (NSC758257), carboplatin (NSC241240) and oxaliplatin (NSC266046), were obtained from the National Cancer Institute (NCI) Developmental Therapeutics Program Chemical Repository (21). The FDA-approved anticancer drug set is available from the Developmental Therapeutics Program at https://dtp.cancer.gov/organization/dscb/obtaining/. […] The stock solutions were prepared in dimethyl sulfoxide (DMSO, Sigma-Aldrich, St. Louis, MO, cat. D2650), except for the platinum compounds which were prepared in saline (Quality Biological, Gaithersburg, MD, cat. 114-055-101), at 800-fold the tested concentration and stored at -70 degrees C prior to their use. All drugs and investigational agents were tested over a range starting from a high concentration at or near the clinical Cmax and decreasing in half-log increments. If the clinical Cmax for an agent had not been determined, the highest concentration tested was 10 microM, except for SN-38, which was tested at a high concentration of 1 microM.
# Cell Culture. All cells were maintained in an incubator at 37 degrees C and 5% CO2 with 95% humidity. The PDC lines were cultured according to standard operating procedures established by the NCI PDMR (https://pdmr.cancer.gov). Table 3 of the manuscript, lists the cell lines along with the number of the three cell types plated to form the mct-spheroids and media for tumor cell growth. After thawing, all PDC lines, except 997537-175-T-J1-PDC and 415267-285-R-J2-PDC, were cultured in Matrigel-coated flasks prepared with a working solution of 1X Ham's F-12 nutrient mix, without supplementation (Thermo Fisher Scientific, cat. 11765054), 100 U/mL penicillin-streptomycin (Thermo Fisher Scientific, cat. 15140122), and 2.5% Matrigel (Corning Inc., Corning, NY, cat. 354248) for the first three passages. The two PDC lines 997537-175-T-J1-PDC and 415267-285-R-J2-PDC were cultured on uncoated flasks. The 857933-349-R-J2-PDC line was cultured in 6C/Colon 1B media containing advanced DMEM/F-12 (Thermo Fisher Scientific, cat. 12634028), 10 mM HEPES (Thermo Fisher Scientific, cat. 15630080), 1X GlutaMAX supplement (Thermo Fisher Scientific, cat. 35050061), 0.1 mg/mL primocin (InvivoGen, San Diego, CA, cat. ant-pm-2), 10% defined fetal bovine serum, heat inactivated (HyClone Laboratories Inc., Logan, UT, cat. SH30070.03HI), 50% L-WRN conditioned media (ATCC, cat. CRL-3276), 1.25 mM N-Acetyl-L-cysteine (Sigma-Aldrich, cat. A9165), 10 mM nicotinamide (Sigma-Aldrich, cat. N0636), 1X B-27 supplement (Thermo Fisher Scientific, cat. 17504044), 1X N-2 supplement (Thermo Fisher Scientific, cat. […]
# [1] = compound alone, run of 01/08/2024
# [2] = compound alone, run of 01/19/2024
# 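Further: spheroids exposed to compounds for seven days before readout.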
Structure (SMILES),"viability, T/C (compound 0.0316 µM)","viability, T/C (compound 0.1 µM)","viability, T/C (compound 0.316 µM)","viability, T/C (compound 1 µM)","viability, T/C (compound 3.16 µM)","viability, T/C (compound 10 µM)",IC50 (curve of compound),IC50 [1] [nM],"viability, T/C (compound 0.00316 µM)","viability, T/C (compound 0.01 µM)",IC50 [2] [nM],"viability, T/C (compound 0.000316 µM)","viability, T/C (compound 0.001 µM)"
CNCc1ccc(-c2[nH]c3cc(F)cc4c3c2CCNC4=O)cc1,100% and 90.4% and 94.9%,113% and 94.5% and 90.2%,112% and 94.5% and 80.8%,109% and 95.4% and 91.2%,108% and 106% and 89.7%,97.1% and 91.2% and 90%,> 10000 nM,–,–,–,–,–,–
COC1C(OC(N)=O)C(O)C(Oc2ccc3c(O)c(NC(=O)c4ccc(O)c(CC=C(C)C)c4)c(=O)oc3c2C)OC1(C)C (configuration not stated),–,–,–,–,–,–,–,> 10000,–,–,–,–,–
COc1cc(C2c3cc4c(cc3C(OC3OC5COC(C)OC5C(O)C3O)C3COC(=O)C23)OCO4)cc(OC)c1O (configuration not stated),74.7% and 90.5% and 74.8%,74% and 67.4% and 84.9%,51.1% and 65.9% and 54.1%,60% and 59.9% and 55.7%,38.2% and 33.4% and 32.9%,24.6% and 24.7% and 27.6%,1160 nM and 1190 nM and 955 nM,–,–,–,–,–,–
COc1cc2cc(C(=O)CCC(=O)O)sc2cc1OC,92.5% and 89% and 101%,88.6% and 95.5% and 91.5%,94.9% and 102% and 82.7%,88.2% and 110% and 92.5%,102% and 111% and 116%,84.1% and 95% and 89.9%,> 10000 nM,–,–,–,–,–,–
COc1ccc([C@@H](O)c2cc(-c3ncnc4cc(N5CCOCC5)ccc34)c(F)cc2Cl)nn1,97.4% and 82.2% and 96.7%,85.4% and 95.2% and 123%,85.5% and 99% and 89.7%,102% and 100% and 95.2%,84.8% and 82.1% and 79.2%,71.6% and 58.9% and 66%,> 10000 nM,–,–,–,–,–,–
COc1cccc(OCCCN)c1-c1cc(Nc2cnc(C#N)cn2)n[nH]1,74.3% and 98.6% and 80.6%,51.2% and 62.8% and 75.9%,53.3% and 60.6% and 53.7%,38.1% and 53.8% and 48.8%,–,–,189 nM and > 1000 nM and 731 nM,–,91.5% and 95.9% and 86.6%,87.6% and 84.2% and 97.2%,–,–,–
COc1cccc2c1C(=O)c1c(O)c3c(c(O)c1C2=O)CC(O)(C(=O)CO)CC3OC1CC(N)C(O)C(C)O1 (configuration not stated),74.8% and 79.1% and 66.5%,76.8% and 69% and 68.7%,43.7% and 46.9% and 49.5%,10.4% and 8.69% and 8.8%,0.42% and 0.45% and 0.4%,0.55% and 0.34% and 0.38%,259 nM and 312 nM,–,–,–,–,–,–
Cc1cccc(N(C)C(=O)C2C(O)CCN2c2nc(C)cc(C(F)(F)F)c2C#N)c1 (configuration not stated),96.2% [middle of 13 runs],–,–,–,–,–,–,> 10000,–,–,> 10000,–,–
Cn1ncnc1[C@H]1c2n[nH]c(=O)c3cc(F)cc(c23)N[C@@H]1c1ccc(F)cc1,85.6% and 89.2% and 103%,90.2% and 97.5% and 88.9%,–,–,–,–,> 100 nM,–,105% and 103% (2×),99.3% and 97.8% and 73.1%,–,96.9% and 93.8% and 114%,93.6% and 90.7% and 86.2%
Nc1ccc(C#CCN(C(=O)Cc2ncc(C(F)(F)F)cc2C(F)(F)F)c2ccc(F)cc2)nn1,97.7% [middle of 13 runs],104% [middle of 13 runs],102% [middle of 13 runs],99.5% [middle of 13 runs],–,99.5% [middle of 13 runs],–,–,–,–,> 10000,–,–
Nc1ccn(C2OC(CO)C(O)C2(F)F)c(=O)n1 (configuration not stated),73.9% and 60.7% and 67.2%,59.8% and 43.2% and 55.4%,25.9% and 10.6% and 33.7%,19.8% and 9.28% and 16.4%,13% and 7.52% and 11.1%,10.5% and 5.88% and 9.87%,139 nM and 63.8 nM and 134 nM,–,–,–,–,–,–
O=C(Nc1ccc(O)c(NS(=O)(=O)c2ccc(F)cc2)c1)c1ccc(-c2ccccc2)cc1,93.1% and 99.4% and 97.2%,97.3% and 105% and 102%,82.5% and 107% and 105%,94.7% and 94% and 82.6%,95.3% and 86.2% and 100%,77.8% and 88.1% and 78.2%,> 10000 nM,–,–,–,–,–,–
O=C(c1cc(Cc2n[nH]c(=O)c3ccccc23)ccc1F)N1CCN(C(=O)C2CC2)CC1,110% and 84.9% and 98.6%,108% and 96.5% and 87.8%,96.2% and 105% and 95.9%,101% and 98.2% and 108%,94.1% and 79.9% and 110%,72.3% and 76.5% and 84.3%,> 10000 nM,–,–,–,–,–,–
O=c1[nH]cc(F)c(=O)[nH]1,98.7% and 89.7% and 53.3%,89.1% and 112% and 86.9%,114% and 97.8% and 96%,72.6% and 81.3% and 59.4%,45.8% and 37.1% and 40.2%,28.3% and 24.9% and 21.5%,2380 nM and 2250 nM and 1890 nM,–,–,–,–,–,–
